Active and inactive are the calls of the source. No cut-off for these calls is given here.
Assays:
Wolinella succinogenes [1] = assay: Inhibition of Wolinella succinogenes succinate/quinone reductase at 20 uM
Wolinella succinogenes [2] = assay: Inhibition of Wolinella succinogenes quinol/fumarate reductase at 20 uM
[3] = Inhibition of Wolinella succinogenes quinol/fumarate reductase
[4] = target: T1, NAD(P)H dehydrogenase [quinone] 1 (Rattus norvegicus) (UniProt P05982); assay: Inhibition of rat DT-diaphorase assessed as reduction of cytochrome c at 2 uM
T1 sequence (whole entry): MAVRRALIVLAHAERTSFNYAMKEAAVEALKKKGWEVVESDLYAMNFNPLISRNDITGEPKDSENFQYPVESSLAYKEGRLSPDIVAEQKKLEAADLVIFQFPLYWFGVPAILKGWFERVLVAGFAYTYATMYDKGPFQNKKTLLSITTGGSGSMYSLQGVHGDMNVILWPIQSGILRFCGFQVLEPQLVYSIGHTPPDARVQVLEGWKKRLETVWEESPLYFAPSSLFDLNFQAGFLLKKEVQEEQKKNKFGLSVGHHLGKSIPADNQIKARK

[5] = Inhibition of Wolinella succinogenes succinate/quinone reductase

SMILES	inhibition call (active/not active) (Wolinella succinogenes [1])	inhibition activity (active/not active) (Wolinella succinogenes [2])	IC50 [3] [nM]	inhibition [4]	IC50 [5] [nM]
CCCCCCC1=C(Br)C(=O)c2ccccc2C1=O	Active	Active	–	–	–
O=C1C(O)=C(CCCCCCCCCCBr)C(=O)c2ccccc21	inactive	inactive	–	–	–
CCCCCCC1=C(OC)C(=O)c2ccccc2C1=O	Active	Active	–	–	–
O=C1C(O)=C(CCCc2ccccc2)C(=O)c2ccccc21	Active	Active	–	–	–
CC(C)(O)CCC1=C(O)C(=O)c2ccccc2C1=O	inactive	inactive	–	–	–
CC(C)(C)CC1=C(O)C(=O)c2ccccc2C1=O	Active	Active	–	–	–
CCCCCCCCCCC1=C(OC)C(=O)c2ccccc2C1=O	Active	Active	–	–	–
CCCCCCC1=C(O)C(=O)c2ccccc2C1=O	Active	Active	–	–	–
O=C1C(O)=C(CCCC2CCCCC2)C(=O)c2ccccc21	Active	Active	–	–	–
CCCCCCCCCCCCCCC1=C(O)C(=O)c2ccccc2C1=O	Active	Active	–	–	–
O=C1C=C(O)C(=O)c2ccccc21	Active	Active	–	–	–
CC1=C(O)C(=O)c2ccccc2C1=O	Active	Active	–	–	–
CCCCCCCCCOC1=CC(=O)c2ccccc2C1=O	Active	Active	–	–	–
CCC1=C(Br)C(=O)c2ccccc2C1=O	Active	Active	612	inactive	604
O=C1C(O)=C(CCCCC2CCCCC2)C(=O)c2ccccc21	Active	Active	–	–	–
CCCCCCCCCOC1=CC(=O)C(=O)c2ccccc21	inactive	inactive	–	–	–
CCC1=C(O)C(=O)c2ccccc2C1=O	Active	Active	–	–	–
CC1=C(Br)C(=O)c2ccccc2C1=O	Active	Active	61	inactive	1090
CCCCCCCCCCC1=C(O)C(=O)c2ccccc2C1=O	Active	Active	–	–	–
CCC1=C(OC)C(=O)c2ccccc2C1=O	Active	Active	–	–	–
CCCCCCCCCCC1=C(Br)C(=O)c2ccccc2C1=O	Active	Active	–	–	–

— ChEMBL document CHEMBL3091372, “Design, synthesis, and biological testing of novel naphthoquinones as substrate-based inhibitors of the quinol/fumarate reductase from Wolinella succinogenes” (J Med Chem, 2013)
